The results in this text go back to patent EP0110748A1, “Derivatives of phenyl-(3-aminopropyl) ketone, their therapeutical use and process for their preparation” (LABORATOIRE L. LAFON Société anonyme dite:, priority 1982, dated 1984).

Data set [1] can be described thus: Acute toxicity, DL-50 I.V. in male mice. The settings on record: mouse, in vivo, iv, lots de 10 souris mâles. From the text:
(§1) Le tableau I concerne la toxicité chez la souris mâle, d'une part, et la dose minimale induisant chez le chien anesthésié une action vasodilatatrice fémorale nette, d'autre part. La DL-50 I.V. a été déterminée sur des lots de 10 souris mâles; la dose minimale vasodilatatrice a été déterminée sur un lot de 5 chiens servant de témoins par rapport à eux-mêmes et recevant chaque dose de produit à tester toutes les 2,5 heures.

Data set [2] deals with chien anesthésié. Kind of data set: Minimal dose inducing a clear femoral vasodilator action in the anaesthetised dog. The class given is in vivo. The settings on record: Canis lupus familiaris, lot de 5 chiens.
Description: as §1

The test system of data set [3] is chien anesthésié. Kind of data set: Cardiovascular properties in the anaesthetised dog, I.V. (arterial pressures, heart rate, femoral arterial flow). Type of data set: in vivo. From the text:
Le tableau II concerne les variations des pressions […]. systolique, diastolique, […]équence cardiaque et du débit artériel fémoral.

The test system of data set [4] is chiens anesthésiés. Nature of the data set: Femoral vasodilator action by intravenous infusion in anaesthetised dogs. Type of data set: in vivo, chien. As to the method:
Deux chiens (poids moyen 12,4 kg) anesthésiés au pento- barbital reçoivent le CRL 41 080 par voie intraveineuse, en perfusion de 6 min, aux doses successives de 2 fois 1 mg/kg, puis 2 et 4 mg/kg toutes les 60 min. Pour comparaison, ces animaux reçoivent en fin d'essai une perfusion de 6 mg/kg I.V. d'un produit de référence connu, le LL 1656 précité.

In data set [5] the test system is chiens anesthésiés. Kind of data set: Vasodilator action by intraduodenal route in anaesthetised dogs. The class given is in vivo, chien. The settings on record: voie intraduodénale. The source says: On mesure la pression artérielle, la fréquence cardiaque, le débit artériel fémoral, le débit artériel vertébral, les températures rectale et cutanée.
Data set [6] relates to chiens. Kind of data set: Duration of the vasodilator action, repeated intraduodenal administration in dogs. The class given is in vivo, chien. How it is done: Trois chiens (poids moyen 11,1 kg) reçoivent le CRL 41 080 par voie intraduodénale à la dose de 5 mg/kg à deux reprises (délai entre les deux administrations : 90 min) puis 6 mg/kg I.D. de LL 1656 et, 2 heures plus tard, une nouvelle administration de 5 mg/kg I.D. de CRL 41 080.

For data set [7], the system named is homme. Kind of data set: Clinical trials in man. The class given is in vivo. The settings on record: voie orale (trois gélules par jour de 100 mg) et voie injectable (I.V. ou I.M., une ampoule par jour de 40 mg).
A short description of data set [8]: Antispasmodic properties (no method described).
Data set [9] can be described thus: Solubility in water (observation on the isolated product). The class given is physicochemical. The settings on record: poudre blanche. As to the method: On fait passer entre -5°C et 0°C pendant 2,5 h un courant d'acide chlorhydrique sec au sein d'une solution de 16,8 g (0,10 mole) de 1,3,5-triméthoxybenzène et de 16,6 g (0,10 mole) de 4-hexaméthylèneimino-butyronitrile en solution dans 115 ml de chlorobenzène anhydre. On abandonne la suspension au froid entre 0°C et +4°C une nuit et on extrait le milieu réactionnel par de l'eau. On porte la phase aqueuse au reflux pendant 1 h, on alcalinise par de la soude concentrée et on extrait le précipité par de l'éther diéthylique pour donner 29,8 g d'une huile jaune pale. Cette huile est traitée dans l'éther diéthylique par de l'éthanol chlorhydrique. […] Finst (^Kofler) = 150°C.

Where [10] appears, read: iv, par voie I.V., read-out: dose minimale induisant chez le chien anesthésié une action vasodilatatrice fémorale par voie I.V.
[11] abbreviates: intraduodenal, par voie I.D., '-(d)' = pas d'action vasodilatatrice par voie I.D., read-out: dose minimale induisant chez le chien anesthésié une action vasodilatatrice fémorale par voie I.D.
[12] abbreviates: I.V., perfusion de 6 min, 2 fois 1 mg/kg puis 2 et 4 mg/kg, deux chiens.
Where [13] appears, read: 5 mg/kg I.D., first administration.
Setting [14] is: 5 mg/kg I.D., second administration.
Setting [15] is: dose supplémentaire de 5 mg/kg I.D., 2 heures after LL 1656.
Setting [16] is: 6 mg/kg I.D., after two administrations of CRL 41 080.

Read-outs that look alike come from different tables or passages of the source.

Usually LD50 stands for the dose at which mortality reaches 50%. Consider `COc1cc(OC)c(C(=O)CCCN2CCCCC2)c(OC)c1` [LL 1647, chlorhydratede (2,4,6-triméthoxyphényl)-(3-pipéridi-nopropyl)-cétone], for which the LD50 in data set [1] stood at 68 ± 4 mg/kg. Also, the minimal effective dose in data set [2] (setting [10]) is 5 mg/kg.

`COc1cc(OC)c(C(=O)CCCN2CCCCCC2)c(OC)c1` [CRL 41080, chlorhydratede (2,4,6-triméthoxyphényl)-(3-hexaméthylèneiminopropyl)-cétone] had a median lethal dose (LD50) in data set [1] of 96 ± 3 mg/kg. In addition, the minimal effective dose in data set [2] (setting [11]) worked out at 5 mg/kg; in data set [2] (setting [10]), 1 mg/kg. The “Variation 0,25 h après administration P.A. systolique” value in data set [3] (1 mg/kg I.V., 0,25 h après administration) came out at 0. For the same compound, the “Variation 0,25 h après administration P.A. moyenne” value in [3] (2 mg/kg I.V., 0,25 h après administration) worked out at 0. Further, the “débit fémoral” value is reported as “le débit fémoral augmente pendant la durée de la perfusion dès 1 mg/kg” in data set [4] (setting [12]); “augmente nettement le débit fémoral à partir de la dose de 5 mg/kg” in data set [5] (doses successives 0,5 - 10 mg/kg, quatre chiens); “augmente le débit fémoral” in data set [6] (5 mg/kg I.D., first administration, trois chiens); “effet plus intense sur le débit fémoral” in [6] (5 mg/kg I.D., second administration (90 min after the first)); “n'augmente pas davantage le débit fémoral” in [6] (setting [15]). In addition, the “pression artérielle, fréquence cardiaque” value is on record as “ne modifie pas la pression artérielle ni la fréquence cardiaque” in data set [4] (setting [12]) and “entraîne une hypotension et une bradycardie” in [6] (setting [15]). Moreover, the “débit vertébral” value is listed as “il semble que le débit vertébral soit diminué, mais cet effet n'est pas statistiquement significatif” in data set [5] (doses successives 0,5 - 10 mg/kg) and “ne diminue pas le débit vertébral” in data set [6] (5 mg/kg I.D., repeated). Further, the “durée de l'effet sur le débit fémoral” value in data set [5] (à partir de 5 mg/kg) is given as “plus d'une heure”. In data set [6] (setting [13]), the “autres paramètres mesurés” value is reported as “ne sont pas modifiés”. In data set [6] (setting [13]), the “time at which the effect on débit fémoral has disappeared” value was determined as 120 min. Moreover, the “time at which the effect on débit fémoral has lost half of its intensity” value in data set [6] (setting [13]) amounted to 60 min. Moreover, the “time of maximal effect on débit fémoral” value in data set [6] (setting [13]) and in [6] (setting [14]) was 30 min throughout. The “persistence of the effect on débit fémoral” value in data set [6] (setting [14]) is given as “encore présent à 120 min”. The “résultats des essais cliniques chez l'homme” value in [7] is “bons résultats”. Moreover, in data set [8], the propriétés antispasmodiques result was “ne présente pas les propriétés antispasmodiques”. For the same compound, in data set [9], the “solubilité dans l'eau” value is on record as “soluble dans l'eau”.

Compound `COc1cc(OC)c(C(=O)CCCN2CCCC2)c(OC)c1` [LL 1656, chlorhydratede (2,4,6-triméthoxyphényl)-(3-pyrrolidinopropyl)-cétone, reference compound] registered an LD50 in data set [1] of 60 ± 2.2 mg/kg. In addition, the minimal effective dose in [2] (setting [11]) worked out at 6 mg/kg; in data set [2] (setting [10]) it was 5 mg/kg. Further, the “Variation 0,25 h après administration Fréquence cardiaque” value in [3] (6 mg/kg I.V., 0,25 h après administration) worked out at 0. In addition, the “débit fémoral” value is given as “augmente moins le débit fémoral que 1 mg/kg de CRL 41 080” in data set [4] (perfusion de 6 mg/kg I.V. en fin d'essai, comparison with 1 mg/kg of CRL 41 080) and “augmentation de débit fémoral d'intensité moyenne” in data set [6] (setting [16]). Besides, the “time of maximal effect on débit fémoral” value in data set [6] (setting [16]) amounted to 120 min.
